For one experiment, the target named is T1, dopamine receptors (Rattus norvegicus, UniProt P61169).
T1 construct: brains were immediately dissected on an ice-cold glass plate to remove corpus striatum; from tissue; host or cells: rat corpus striatum, washed homogenate (Sprague-Dawley CD males)
Nature of the experiment: Inhibition of ^3 H-spiroperidol binding to dopamine receptors (rat corpus striatum homogenate). Further details: species or system rat (Sprague-Dawley CD). The conditions noted are these: 0.5 nM ^3 H-spiroperidol, 10 min at 37° C. As for the experimental part: The procedure was as follows:
Rats (Sprague-Dawley CD males, 250-300 g., Charles River Laboratories, Wilmington, Mass.) were decapitated, and brains were immediately dissected on an ice-cold glass plate to remove corpus striatum (~100 mg./brain). Tissue was homogenized in 40 volumes (1 g.+40 ml). of ice-cold 50 mM. […] The tissue suspension was placed in a 37° C. water bath for 5 minutes to insure inactivation of tissue monoamine oxidase and then kept on ice until used. The incubation mixture consisted of 0.02 ml. inhibitor solution (the desired concentration of the derivative to be tested in stock solution). […] Tubes were incubated in sequence for 10 minutes at 37° C. in groups of three, after which 0.9 ml. of each incubation tube was filtered through Whatman FG/B filters using a high vacuum pump. Each filter was placed in a scintillation vial, 10 ml. of liquid scintillation fluor was added and each vial was vigorously vortexed for about five seconds. Samples were allowed to stand over night, until filters were translucent, vortexed again and then counted 1.0 minute for radioactivity. Binding was calculated as femtomales (10^-15 moles) of ^3 H-spiroperidol bound per mg. protein. Controls (vehicle or 1 butaclamol, 10^-7 M; 4.4 mg. dissolved in 200 μl. glacial acetic acid, then diluted to 2.0 ml. with DDW for 10^-4 M stock solution, kept refrigerated), blank (d-butaclamol, 10^-7 M; (4.4 mg./2 ml.) for 10^-4 M stock solution, same protocol as 1-butaclamol); and inhibitor solutions were run in triplicate. […] Insoluble drugs were dissolved in 50% ethanol (1% ethanol incubation).
**DDW=Double Distilled Water.

In experiment [1] the test system is amphetamine-induced symptoms (characteristic amphetamine behaviour of cage movement). Briefly: Antagonism of amphetamine symptoms in rats (rat amphetamine test). It counts as in vivo. The conditions noted are these: block of cage movement in 50% of rats; for ED50: Rattus norvegicus, sc; for ED50, rat amphetamine test, 1 hr.: 60 min; for ED50, rat amphetamine test, 5 hr.: 300 min; for ED50, rat amphetamine test, 24 hr.: 1440 min. An excerpt:
The tranquilizing activity of the derivatives may be determined using the well known standard procedure-antagonism of amphetamine-induced symptoms in rats.
The effects of the above examples of Derivatives on prominent amphetamine-induced symptoms were studied in rats by a rating scale modeled after the one reported by Quinton and Halliwell, and Weissman. Rats were placed individually in a covered plastic cage measuring approximately 26 cm.×42 cm×16 cm. After a brief period of acclimation of the cage, the rats in each group, commonly, five animals per dose level, were treated subcutaneously (s.c.) with a selected dose of the Derivative to be tested. They were then treated 1, 5 and 24 hrs. later with d-amphetamine sulfate, 5 mg./kg. intraperitoneally (i.p.). […] The time of rating chosen coincides with the peak action of amphetamine which is 60-80 min. after dosing.

Where [2] appears, read: 1 h, s.c., d-amphetamine sulfate 5 mg/kg i.p. 1 hr after treatment, read-out: ED50, rat amphetamine test, 1 hr.
Where [3] appears, read: 5 h, read-out: ED50, rat amphetamine test, 5 hr., s.c., d-amphetamine sulfate 5 mg/kg i.p. 5 hr after treatment.
Setting [4] is: 24 h, s.c., d-amphetamine sulfate 5 mg/kg i.p. 24 hr after treatment, read-out: ED50, rat amphetamine test, 24 hr.
[5] abbreviates: s.c., d-amphetamine sulfate 5 mg/kg i.p. 1 hr after treatment.
The mark [6] stands for this setting: s.c., d-amphetamine sulfate 5 mg/kg i.p. 5 hr after treatment.
Where [7] appears, read: s.c., d-amphetamine sulfate 5 mg/kg i.p. 24 hr after treatment.

Experimental findings from patent US4352807A, “Hexahydro-trans-pyridoindole neuroleptic agents” (Pfizer Inc., priority 1980, dated 1982) are described below.

As a reminder, the pIC50 is the negative decadic logarithm of the IC50, by convention in mol/L. As usually defined, the ED50 is the dose that gives a 50% effect, or the effect in half of the subjects.

pIC50: −log10 of the molar value. Read-outs that look alike come from different tables or passages of the source.

T1 sequence (P61169 whole entry): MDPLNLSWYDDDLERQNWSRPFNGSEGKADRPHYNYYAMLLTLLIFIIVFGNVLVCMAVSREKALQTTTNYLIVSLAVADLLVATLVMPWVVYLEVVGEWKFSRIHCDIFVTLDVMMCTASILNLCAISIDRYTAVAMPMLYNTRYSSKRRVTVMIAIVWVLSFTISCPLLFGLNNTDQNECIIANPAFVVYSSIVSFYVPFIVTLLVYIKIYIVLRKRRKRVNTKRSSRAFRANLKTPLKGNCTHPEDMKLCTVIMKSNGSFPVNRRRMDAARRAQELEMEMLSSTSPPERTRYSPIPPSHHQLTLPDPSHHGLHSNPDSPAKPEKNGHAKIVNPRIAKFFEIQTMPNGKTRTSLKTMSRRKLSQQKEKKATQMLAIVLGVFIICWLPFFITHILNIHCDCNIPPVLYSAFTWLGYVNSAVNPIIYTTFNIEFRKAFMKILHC

On to `COc1ccccc1C(=O)NCCCCN1CC[C@H]2[C@H](C1)c1cc(F)ccc1N2c1ccc(F)cc1` (relative stereo) [Example 15, (±) 2-[N--(o-methoxybenzoyl)-1'-amino-n-but-4'-yl]], for which the pIC50 on dopamine receptors was 7.85. The 50% effective dose (ED50) in experiment [1] (setting [2]) turned out to be 0.45 mg/kg; in experiment [1] (setting [3]), 0.18 mg/kg; in experiment [1] (setting [4]) it was 1 mg/kg.

In turn, `CC(=O)NCCCCN1CC[C@H]2[C@H](C1)c1ccccc1N2c1ccccc1` (relative stereo) [Example 17, (±) 2-(N--acetyl-1'-amino-n-but-4'-yl)-5-phenyl-2,3,4,-4a,9b-hexahydro-trans-4a,9b-1(H)-pyrido[4,3-b]indole] showed a pIC50 on dopamine receptors of 7.80.

Turning to `CC(=O)NCCCCCCCN1CC[C@H]2[C@H](C1)c1cc(F)ccc1N2c1ccc(F)cc1` (relative stereo) [Example 10, (±) 2-(N--acetyl-1'-amino-n-hept-7'-yl)], the pIC50 at dopamine receptors was 8.05. The results for the ED50 in experiment [1] (setting [2]), in experiment [1] (setting [3]) and in experiment [1] (setting [4]) were 0.09 mg/kg, 0.018 mg/kg and 0.05 mg/kg, respectively.

Turning to `Cc1ccc(S(=O)(=O)NCCCCN2CC[C@H]3[C@H](C2)c2cc(F)ccc2N3c2ccc(F)cc2)cc1` (relative stereo) [Example 16, (±) 2-(N--p-toluenesulfonyl-1'-amino-n-but-4'-yl)], the ED50 in experiment [1] (setting [2]) and in experiment [1] (setting [3]) was 1 mg/kg each time.

`CC(=O)NCCCCCCN1CC[C@H]2[C@H](C1)c1cc(F)ccc1N2c1ccc(F)cc1` (relative stereo) [Example 9, (±) 2-(N--acetyl-1'-amino-n-hex-6'-yl)]: the pIC50 on dopamine receptors was 8.10. Further, the ED50 in experiment [1] (setting [2]) was 0.023 mg/kg; in experiment [1] (setting [3]) it was 0.002 mg/kg; in experiment [1] (setting [4]), 0.032 mg/kg.

`CC(=O)NCCCCN1CC[C@H]2[C@H](C1)c1cc(F)ccc1N2c1ccc(F)cc1` (relative stereo) [Example 3, (±)2-(N-acetyl-1'-amino-n-but-4'-yl)-5-(p-fluorophenyl)-8-fluoro-2,3,4,4a,5,9b-hexahydro-trans-4a,9b-1(H)-pyrido[4,3-b]indole]: the pIC50 on dopamine receptors was 7.89. Besides, the ED50 in experiment [1] (setting [2]) was determined as 0.02 mg/kg; in experiment [1] (setting [3]), 0.006 mg/kg; in experiment [1] (setting [4]), 0.66 mg/kg.

At dopamine receptors, `NCCCCN1CC[C@H]2[C@H](C1)c1cc(F)ccc1N2c1ccc(F)cc1` (relative stereo) [Example 2, (±)2-(1'-amino-n-but-4'-yl)-5-(p-fluorophenyl)-8-fluoro-2,3,4,4a,5,9b-hexahydro-trans-4a,9b-1(H)-pyrido[4,3-b]indole] had a pIC50 of 7.62. Moreover, the results for the ED50 in experiment [1] (setting [2]), in experiment [1] (setting [3]) and in experiment [1] (setting [4]) were 17.7 mg/kg, 4.5 to 11.5 mg/kg and 17.7 mg/kg, respectively.

In turn, `CCOC(=O)NCCCCN1CC[C@H]2[C@H](C1)c1cc(F)ccc1N2c1ccc(F)cc1` (relative stereo) [Example 14, (±) 2-(N--ethoxycarbonyl-1'-amino-n-but-4'-yl)] had a pIC50 on dopamine receptors of 7.96. Also, the figures for the ED50 in experiment [1] (setting [2]), in experiment [1] (setting [3]) and in experiment [1] (setting [4]) were 0.05 mg/kg, 0.02 mg/kg and 0.3 mg/kg, respectively.

Turning to `CC(=O)NCCCCN1CCC2C(C1)c1cc(F)ccc1N2c1ccc(F)cc1` (single isomer, unassigned; (-)) [Example 12, (-) enantiomer of 2-(N--acetyl-1'-amino-n-but-4'-yl)], the negative logarithm of the IC50 (pIC50) on dopamine receptors was 6.00. Also, the “ED50, rat amphetamine test, 1 hr.” value in experiment [1] (setting [5]) stood at 1 mg/kg. In addition, the “ED50, rat amphetamine test, 5 hr.” value in experiment [1] (setting [6]) turned out to be 1 mg/kg. In addition, in experiment [1] (setting [7]), the “ED50, rat amphetamine test, 24 hr.” value amounted to 1 mg/kg.

In the case of `CC(=O)NCCCCCN1CC[C@H]2[C@H](C1)c1cc(F)ccc1N2c1ccc(F)cc1` (relative stereo) [Example 8, (±) 2-(N--acetyl-1'-amine-n-pent-5'-yl)], the pIC50 at dopamine receptors was 8.05. The ED50 in experiment [1] (setting [2]) was found to be 0.01 mg/kg; in experiment [1] (setting [3]), 0.004 mg/kg; in experiment [1] (setting [4]) it was 0.4 mg/kg.

In turn, `CC(=O)NCCCN1CC[C@H]2[C@H](C1)c1cc(F)ccc1N2c1ccc(F)cc1` (relative stereo) [Example 7, (±) 2-(N--acetyl-1'-amino-n-prop-3-yl)] had a pIC50 at dopamine receptors of 8.00.

For `CC(=O)NCCCCN1CCC2C(C1)c1cc(F)ccc1N2c1ccc(F)cc1` (single isomer, unassigned; (+)) [Example 11, (+) enantiomer of 2-(N--acetyl-1-'-amino-n-but-4-yl)], the pIC50 at dopamine receptors was 8.33. Moreover, the “ED50, rat amphetamine test, 1 hr.” value in experiment [1] (setting [5]) was 0.02 mg/kg. Also, the “ED50, rat amphetamine test, 5 hr.” value in experiment [1] (setting [6]) is on record as 0.006 mg/kg. The “ED50, rat amphetamine test, 24 hr.” value in experiment [1] (setting [7]) is on record as 0.28 mg/kg.

`CC(=O)NCCN1CC[C@H]2[C@H](C1)c1cc(F)ccc1N2c1ccc(F)cc1` (relative stereo) [Example 6, 2-(N-acetyl-2-aminoethyl)-5-(p-fluorophenyl)-8-fluoro-2,3,4,4a,5,9b-hexahydro-trans-4a,9b-1(H)-pyrido[4,3-b]indole] showed a pIC50 at dopamine receptors of 7.80. Also, the ED50 in experiment [1] (setting [2]) was determined as 0.11 mg/kg; in experiment [1] (setting [3]), 0.36 mg/kg; in experiment [1] (setting [4]) it was 1 mg/kg.

Turning to `O=C(NCCCCN1CC[C@H]2[C@H](C1)c1cc(F)ccc1N2c1ccc(F)cc1)c1ccccc1` (relative stereo) [Example 13, (±) 2-(N--benzoyl-1'-amino-n-but-4'-yl)], the ED50 in experiment [1] (setting [2]) fell in the range of 0.1 to 0.3 mg/kg; in experiment [1] (setting [3]), 0.01 to 0.03 mg/kg; in experiment [1] (setting [4]), 0.3 to 1 mg/kg.
